Test results: PubChem BioAssay AID2060344 (Molecular Pharmacology Branch, DTP, NCI, 2025)
“And” between values parts separate entries of the source, which are not always exact repeats. Equal values may be shown once.

Tested on: SK-MEL-2 multi-cell spheroids, viability
Assay: Anticancer human tumor SK-MEL-2 cell line growth inhibition [TAK];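 also: spheroids exposed to drugs for seven days before readout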;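 as to viability, T/C: percent of DMSO vehicle control luminescence so 100% = untreated viability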
Details: for viability, T/C: stronger effect = lower value; active = viability on the fitted dose curve at most 10% of control; inactive = the rest
Text: Combinatorial screen of targeted agents with TAK-243 and ipatasertib in multi-cell type tumor spheroids
A high-throughput screen of multi-cell type tumor spheroids was designed to identify active combinations of targeted small molecules and TAK-243 or ipatasertib. Complex spheroids include a stromal component modeled by human endothelial cells (HUVEC) and fibroblasts modeled by human mesenchymal stem cells (MSCs). The concentration ranges selected for each drug and investigational agent were based upon clinically achievable concentrations if the clinical Cmax of the agent was known.
Compounds. The drugs and investigational agents: TAK-243 (785004), ipatasertib (767898), everolimus (733504), selumetinib (741078), bortezomib (756655), trametinib (758246), ixazomib (758254), vemurafenib (761431), dabrafenib (764134), sapanisertib (764658), alpelisib (765974), and copanlisib (816437), were obtained from the National Cancer Institute (NCI) Developmental Therapeutics Program Chemical Repository. The FDA-approved anticancer drug set is available from the NCI Developmental Therapeutics Program. […] The stock solutions were prepared in dimethyl sulfoxide (DMSO, Sigma-Aldrich, St. Louis, MO, cat. D2650) at 800-fold the tested concentration and stored at -70 degrees C prior to their use. All drugs and investigational agents were tested over a range starting from a high concentration at or near the clinical Cmax and decreasing in half-log increments. If the clinical Cmax for an agent had not been determined, the highest concentration tested was 10 microM.
NCI60 Cell Culture. NCI60 cell lines were obtained from the NCI Developmental Therapeutics Program Tumor Repository. For each lot of cells, the Repository performed Applied Biosystems AmpFLSTR Identifiler testing with PCR amplification to confirm consistency with the published Identifier STR profile for each cell line. Cells were kept in continuous culture for no more than 20 passages. The optimal seeding densities for each of the cell lines at each time point assessed were determined prior to performing the concentration response studies. Briefly, the NCI60 human tumor lines were grown as monolayers in RPMI 1640 medium supplemented with 10% FBS and 2 mmol/L L-glutamine.
An additional 2 lines were from the NCI60 cell line panel including melanomas, MALME-3M and SK-MEL-2. Pooled donor human umbilical vein endothelial cells (HUVEC, Lonza, cat. CC-2519) and human mesenchymal stem cells (hMSC, Lonza, cat. PT-2501) were purchased from Lonza (Walkersville, MD).
PDMR cell lines were grown in complete medium (DC medium): Dulbecco's modified Eagle's medium (DMEM)/F12 supplemented with 5% fetal bovine serum (FBS), 2 mM L-glutamine, 100 U/mL penicillin and 100 µg/ml streptomycin, 0.4 µg/ml hydrocortisone, 10 ng/ml epidermal growth factor (EGF) recombinant human protein, 24 µg/mL adenine, and 0.1 mg/mL primocin. During culture from frozen stock vials, PDMR cells were cultured in the same medium containing 10 µM Y-27632 (see Table 3). The PDCs were cultured in complete DMEM/F12 media without 10 microM Y-27632 dihydrochloride for at least two passages prior to the screen. The pooled donor HUVEC and hMSC were cultured in endothelial cell growth medium 2 (PromoCell, Heidelberg, Germany, cat. C-22011) and mesenchymal stem cell growth medium 2 (PromoCell, cat. C-28009), respectively. For all experiments, HUVEC and hMSC were used at passages </=5.
For the pre-screen, cell seeding densities were determined from a titration spanning the range from 5,000 to 313 cells per well. The mct-spheroids including 60% malignant cells, 25% HUVEC and 15% MSC dispensed as a mixture into U-bottom Ultra-Low Attachment 384-well plates (Corning, NY)
High-throughput Drug Combination Screening.
Prior to their inoculation into 384-well plates, malignant cells, HUVEC, and hMSC were removed from T flasks using TrypLE express (Thermo Fisher Scientific, cat. 12605036) and harvested by centrifugation for 5 min at 233 x g. […]

[1] = curve of first compound, second compound 0.3 µM
[2] = curve of first compound, second compound 0.949 µM
[3] = curve of first compound, second compound 3 µM
[4] = curve of first compound, second compound 9.49 µM
[5] = curve of first compound, second compound 30 µM

CC(C)n1nc(-c2ccc3oc(N)nc3c2)c2c(N)ncnc21 + CC(C)NCC(C(=O)N1CCN(c2ncnc3c2C(C)CC3O)CC1)c1ccc(Cl)cc1
3.22 nM: IC50 [3]
10.7 nM: IC50 [2]
inactive: viability, T/C (second compound 0.3 µM, first compound 0.000316 µM) 98.6% | viability, T/C (second compound 0.3 µM, first compound 0.001 µM) 92.4% | viability, T/C (second compound 0.3 µM, first compound 0.00316 µM) 82.1% | viability, T/C (second compound 0.3 µM, first compound 0.01 µM) 76.8% | viability, T/C (second compound 0.3 µM, first compound 0.0316 µM) 45.8% | viability, T/C (second compound 0.3 µM, first compound 0.1 µM) 25.5% | viability, T/C (second compound 0.949 µM, first compound 0.000316 µM) 85.6% | viability, T/C (second compound 0.949 µM, first compound 0.001 µM) 82% | viability, T/C (second compound 0.949 µM, first compound 0.00316 µM) 58.7% | viability, T/C (second compound 0.949 µM, first compound 0.01 µM) 55.6% | viability, T/C (second compound 0.949 µM, first compound 0.0316 µM) 33.4% | viability, T/C (second compound 0.949 µM, first compound 0.1 µM) 19% | viability, T/C (second compound 3 µM, first compound 0.000316 µM) 66% | viability, T/C (second compound 3 µM, first compound 0.001 µM) 62.3% | viability, T/C (second compound 3 µM, first compound 0.00316 µM) 48.5% | viability, T/C (second compound 3 µM, first compound 0.01 µM) 37.8% | viability, T/C (second compound 3 µM, first compound 0.0316 µM) 27.2% | viability, T/C (second compound 3 µM, first compound 0.1 µM) 12.5% | viability, T/C (second compound 9.49 µM, first compound 0.000316 µM) 56.3% | viability, T/C (second compound 9.49 µM, first compound 0.001 µM) 54.4% | viability, T/C (second compound 9.49 µM, first compound 0.00316 µM) 42.2% | viability, T/C (second compound 9.49 µM, first compound 0.01 µM) 34.7% | viability, T/C (second compound 9.49 µM, first compound 0.0316 µM) 25.1% | viability, T/C (second compound 9.49 µM, first compound 0.1 µM) 13.6% | viability, T/C (second compound 30 µM, first compound 0.000316 µM) 52.6% | viability, T/C (second compound 30 µM, first compound 0.001 µM) 51.4% | viability, T/C (second compound 30 µM, first compound 0.00316 µM) 41.2% | viability, T/C (second compound 30 µM, first compound 0.01 µM) 32.9% | viability, T/C (second compound 30 µM, first compound 0.0316 µM) 20.7%
1.31 nM: IC50 [4]
0.858 nM: IC50 [5]
active: viability, T/C (second compound 30 µM, first compound 0.1 µM) 9.08%
29.5 nM: IC50 [1]

Cc1nc(NC(=O)N2CCCC2C(N)=O)sc1-c1ccnc(C(C)(C)C(F)(F)F)c1 (stereo unspecified)
inactive: viability, T/C (compound 0.0316 µM) 100% and 105% | viability, T/C (compound 0.1 µM) 91.2% and 91.5% | viability, T/C (compound 0.316 µM) 84.4% and 85.5% | viability, T/C (compound 1 µM) 80.7% and 83.9% | viability, T/C (compound 3.16 µM) 68.8% and 66.5% | viability, T/C (compound 10 µM) 55.6% and 54.2%
> 10000 nM: IC50 (curve of compound)

Cn1cnc2c(F)c(Nc3ccc(Br)cc3Cl)c(C(=O)NOCCO)cc21
14.1% and 2.56%: viability, T/C (compound 3 µM)
inactive: viability, T/C (compound 0.00949 µM) 46.8% and 40.8% | viability, T/C (compound 0.03 µM) 34.6% and 17.4%
14.6% and 5.25%: viability, T/C (compound 0.949 µM)
21.9% and 7.35%: viability, T/C (compound 0.3 µM)
19.7% and 9.79%: viability, T/C (compound 0.0949 µM)
< 9.49 nM: IC50 (curve of compound)

Cn1cnc2c(F)c(Nc3ccc(Br)cc3Cl)c(C(=O)NOCCO)cc21 + CC(C)NCC(C(=O)N1CCN(c2ncnc3c2C(C)CC3O)CC1)c1ccc(Cl)cc1
active: viability, T/C (second compound 0.3 µM, first compound 0.0949 µM) 5.04% | viability, T/C (second compound 0.3 µM, first compound 0.3 µM) 5.04% | viability, T/C (second compound 0.3 µM, first compound 0.949 µM) 2.85% | viability, T/C (second compound 0.3 µM, first compound 3 µM) 1.59% | viability, T/C (second compound 0.949 µM, first compound 0.0949 µM) 4.14% | viability, T/C (second compound 0.949 µM, first compound 0.3 µM) 2.7% | viability, T/C (second compound 0.949 µM, first compound 0.949 µM) 1.73% | viability, T/C (second compound 0.949 µM, first compound 3 µM) 1.41% | viability, T/C (second compound 3 µM, first compound 0.03 µM) 10.2% | viability, T/C (second compound 3 µM, first compound 0.0949 µM) 2.52% | viability, T/C (second compound 3 µM, first compound 0.3 µM) 1.7% | viability, T/C (second compound 3 µM, first compound 0.949 µM) 1.41% | viability, T/C (second compound 3 µM, first compound 3 µM) 0.98% | viability, T/C (second compound 9.49 µM, first compound 0.03 µM) 9.42% | viability, T/C (second compound 9.49 µM, first compound 0.0949 µM) 2.79% | viability, T/C (second compound 9.49 µM, first compound 0.3 µM) 1.33% | viability, T/C (second compound 9.49 µM, first compound 0.949 µM) 0.9% | viability, T/C (second compound 9.49 µM, first compound 3 µM) 0.56% | viability, T/C (second compound 30 µM, first compound 0.03 µM) 8.51% | viability, T/C (second compound 30 µM, first compound 0.0949 µM) 2.57% | viability, T/C (second compound 30 µM, first compound 0.3 µM) 0.97% | viability, T/C (second compound 30 µM, first compound 0.949 µM) 0.37% | viability, T/C (second compound 30 µM, first compound 3 µM) 0.35%
< 9.49 nM: IC50 [1] | IC50 [2] | IC50 [3] | IC50 [4] | IC50 [5]
inactive: viability, T/C (second compound 0.3 µM, first compound 0.00949 µM) 36.2% | viability, T/C (second compound 0.3 µM, first compound 0.03 µM) 15.6% | viability, T/C (second compound 0.949 µM, first compound 0.00949 µM) 32.6% | viability, T/C (second compound 0.949 µM, first compound 0.03 µM) 12.9% | viability, T/C (second compound 3 µM, first compound 0.00949 µM) 24.3% | viability, T/C (second compound 9.49 µM, first compound 0.00949 µM) 19.3% | viability, T/C (second compound 30 µM, first compound 0.00949 µM) 21.7%

CC(C)CC(NC(=O)CNC(=O)c1cc(Cl)ccc1Cl)B1OC(=O)CC(CC(=O)O)(C(=O)O)O1 (stereo unspecified)
active: viability, T/C (compound 0.1 µM) 6.45% and 4.25%
inactive: viability, T/C (compound 0.000316 µM) 110% and 95.1% | viability, T/C (compound 0.001 µM) 94.6% and 97.2% | viability, T/C (compound 0.00316 µM) 98% and 93.9% | viability, T/C (compound 0.01 µM) 79.3% and 75.7% | viability, T/C (compound 0.0316 µM) 24.6% and 26%
18.5 nM and 18.1 nM: IC50 (curve of compound)
